Assays:
cytochrome P450s (CYPs) = experiment: Inhibition of xanthotoxol metabolite production in HLMs by a nonspecific CYP inhibitor; assay type: in vitro ADME, human; details: xanthotoxol as substrate, 500 μM ABT
Experimental: Inhibition study was conducted using the above incubation system consisting of liver microsomes, NADPH-generating system, probe substrate at the concentration of about K m value, and xanthotoxol (or the control inhibitor). The concentrations of positive inhibitors used were as follows: 10 μM furafylline for CYP1A2, 2.5 μM 8-methoxypsoralen for CYP2A6, 10 μM quercetin for CYP2C8, 10 μM sulfaphenazole for CYP2C9, 10 μM quinidine for CYP2D6, 50 μM clomethiazole for CYP2E1, 20 μM omeprazole for CYP2C19, 1 μM ketoconazole for CYP3A4, and 500 μM ABT for broad CYP450s. […]

CYP1A2 = biological target: T1, CYP1A2 (Homo sapiens, UniProt P05177); experiment: Inhibition of phenacetin o-deethylation in human liver microsomes; assay type: in vitro ADME
T1 construct: The HLMs were prepared from eleven individual human donor livers; tissue Research Institute for Liver Disease Co. (Shanghai, China); host or cells: human liver microsomes, pool of eleven donors
T1 sequence (P05177 1-516): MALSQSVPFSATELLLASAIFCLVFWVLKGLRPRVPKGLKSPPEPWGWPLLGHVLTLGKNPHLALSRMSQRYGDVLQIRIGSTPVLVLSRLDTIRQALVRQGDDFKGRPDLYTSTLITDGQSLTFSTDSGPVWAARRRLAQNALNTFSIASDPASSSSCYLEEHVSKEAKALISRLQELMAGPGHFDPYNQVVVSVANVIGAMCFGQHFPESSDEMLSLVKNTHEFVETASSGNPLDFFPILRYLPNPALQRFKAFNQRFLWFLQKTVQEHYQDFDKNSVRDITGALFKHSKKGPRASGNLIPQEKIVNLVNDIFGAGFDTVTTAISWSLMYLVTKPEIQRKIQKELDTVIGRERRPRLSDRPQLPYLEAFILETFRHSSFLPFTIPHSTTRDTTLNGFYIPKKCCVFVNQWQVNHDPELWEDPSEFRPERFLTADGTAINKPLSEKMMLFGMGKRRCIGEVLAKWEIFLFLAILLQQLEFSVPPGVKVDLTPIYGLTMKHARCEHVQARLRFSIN
Experimental: (§1) Liver microsomes from human (HLMs) used in this study were provided by the Research Institute for Liver Disease Co. (Shanghai, China). The HLMs were prepared from eleven individual human donor livers. Protein concentration and microsomes activities of CYP2C19, CYP2A6, CYP2C8, CYP2D6, CYP1A2, CYP2C9, CYP2E1, and CYP3A4 had been previously characterized by the Research Institute for Liver Disease Co.
(§2) HLMs phenacetin o-deethylation, coumarin 7-hydroxylation, paclitaxel 6α-hydroxylation, diclofenac 4′-hydroxylation, dextromethorphan o-demethylation, chlorzoxazone 6-hydroxylation, testosterone 6β-hydroxylation, and S-mephenytoin 4′-hydroxylation activities were utilized as selective markers for CYP1A2, CYP2A6, CYP2C8, CYP2C9, CYP2D6, CYP2E1, CYP3A4, and CYP2C19.
(§3) The optimal conditions for microsomal incubation were described previously. The incubation mixture, with a total volume of 200 μL, consisted of 100 mM potassium phosphate buffer (pH 7.4), an NADPH-generating system (10 mM glucose 6-phosphate, 1 unit/mL of glucose 6-phosphate dehydrogenase, and 4 mM MgCl2), liver microsomes (0.3 mg/mL), or recombinant CYP450s (15 nM). […] After a 5 min preincubation at 37°C, the NADP^+ (1 mM, 20 μL) was added into the mixture to initiate the reaction. The reaction was terminated by the addition of methanol (200 μL) with internal standard. The mixture was kept on ice until it was centrifuged at 20 000 ×g for 10 min at 4°C. Aliquots of supernatants were stored at −40°C until analysis. Control incubations without NADPH or without substrate or without microsomes were carried out to ensure that the formation of metabolites was microsomes and NADPH dependent. All incubations throughout the study were carried out in at least three independent experiments with standard deviations (SD) generally below 10%.
(§4) Inhibition study was conducted using the above incubation system consisting of liver microsomes, NADPH-generating system, probe substrate at the concentration of about K m value, and xanthotoxol (or the control inhibitor). […]

CYP2E1 [1] = biological target: T2, CYP2E1 (Homo sapiens, UniProt P05181); assay type: in vitro ADME; details: recombinant enzyme, 30 min, 10 mM, pH 7.4
T2 construct: The HLMs were prepared from eleven individual human donor livers; tissue Research Institute for Liver Disease Co. (Shanghai, China); host or cells: human liver microsomes, pool of eleven donors
T2 sequence (P05181 whole entry): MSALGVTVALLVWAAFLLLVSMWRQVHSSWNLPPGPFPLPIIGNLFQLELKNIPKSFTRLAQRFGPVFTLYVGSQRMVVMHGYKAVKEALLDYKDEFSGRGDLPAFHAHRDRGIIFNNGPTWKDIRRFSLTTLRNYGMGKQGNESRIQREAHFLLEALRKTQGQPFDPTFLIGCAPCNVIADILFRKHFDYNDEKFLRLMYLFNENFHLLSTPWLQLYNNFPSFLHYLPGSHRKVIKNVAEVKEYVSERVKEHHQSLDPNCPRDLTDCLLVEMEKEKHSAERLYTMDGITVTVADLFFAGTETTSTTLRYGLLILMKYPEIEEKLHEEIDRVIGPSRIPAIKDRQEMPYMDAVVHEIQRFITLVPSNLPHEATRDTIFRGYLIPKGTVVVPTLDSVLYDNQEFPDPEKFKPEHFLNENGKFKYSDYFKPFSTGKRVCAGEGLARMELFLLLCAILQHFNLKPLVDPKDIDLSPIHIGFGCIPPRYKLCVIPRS
Experimental: as §3
The enzymes involved in the xanthotoxol metabolism were investigated using cDNA-expressed human P450 isoforms including CYP3A4, CYP2D6, CYP2E1, CYP2C9, CYP2C19, and CYP1A2. The incubation for each isoenzyme was carried out as described for the liver microsomal study. […]

[2] = assay type: in vitro ADME; details: human
Text: The following equations were used to predict the xanthotoxol clearance in human:(2) CLint in vitro=Vmax/Km,CLint in vivo=CLint in vitro·SF,CLH=QH·fu·CLint in vivo/QH+fu·CLint in vivo, where SF (scaling factor) represents the milligrams of microsomal protein per gram of liver multiplied by the grams of liver weight; CLint is the intrinsic metabolic clearance; CLH is hepatic clearance; f u is the free fraction in blood (there are no data of xanthotoxol; here f u was arbitrarily proposed to be 1); Q H is the hepatic blood flow. The hepatic clearance of xanthotoxol was calculated using (2), and physiological parameters in human were described as follows: microsomal protein per gram of liver, liver weight per kilogram of body, and liver blood flow for human were 48.8 mg, 25.7 g, and 20.7 mL·min^−1·kg^−1, respectively.

CYP2E1 [3] = biological target: T2, CYP2E1; assay type: in vitro ADME; details: 100 μM, pH 7.4
Experimental: as §1, §2, §3, §4

CYP2A6 = biological target: T3, CYP2A6 (Homo sapiens, UniProt P11509); assay type: in vitro ADME; details: 100 μM, pH 7.4
T3 construct: The HLMs were prepared from eleven individual human donor livers; tissue Research Institute for Liver Disease Co. (Shanghai, China); host or cells: human liver microsomes, pool of eleven donors
T3 sequence (P11509 1-494): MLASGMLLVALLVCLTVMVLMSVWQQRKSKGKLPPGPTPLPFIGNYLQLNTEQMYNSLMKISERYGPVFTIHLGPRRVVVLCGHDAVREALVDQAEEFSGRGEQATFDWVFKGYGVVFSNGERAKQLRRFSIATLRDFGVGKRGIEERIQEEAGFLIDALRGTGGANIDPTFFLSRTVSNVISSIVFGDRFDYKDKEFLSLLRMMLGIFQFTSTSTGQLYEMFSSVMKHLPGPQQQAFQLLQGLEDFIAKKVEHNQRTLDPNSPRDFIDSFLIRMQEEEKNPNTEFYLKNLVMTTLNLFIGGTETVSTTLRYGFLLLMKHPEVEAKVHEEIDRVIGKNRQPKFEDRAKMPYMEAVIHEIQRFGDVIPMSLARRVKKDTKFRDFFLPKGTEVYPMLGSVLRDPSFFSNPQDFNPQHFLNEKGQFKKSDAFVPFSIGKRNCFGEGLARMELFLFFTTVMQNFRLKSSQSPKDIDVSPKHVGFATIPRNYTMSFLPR
Experimental: as §1, §2, §3, §4

CYP2C8 = biological target: T4, CYP2C8 (Homo sapiens, UniProt P10632); assay type: in vitro ADME; details: 100 μM, pH 7.4
T4 construct: The HLMs were prepared from eleven individual human donor livers; tissue Research Institute for Liver Disease Co. (Shanghai, China); host or cells: human liver microsomes, pool of eleven donors
T4 sequence (P10632 1-490): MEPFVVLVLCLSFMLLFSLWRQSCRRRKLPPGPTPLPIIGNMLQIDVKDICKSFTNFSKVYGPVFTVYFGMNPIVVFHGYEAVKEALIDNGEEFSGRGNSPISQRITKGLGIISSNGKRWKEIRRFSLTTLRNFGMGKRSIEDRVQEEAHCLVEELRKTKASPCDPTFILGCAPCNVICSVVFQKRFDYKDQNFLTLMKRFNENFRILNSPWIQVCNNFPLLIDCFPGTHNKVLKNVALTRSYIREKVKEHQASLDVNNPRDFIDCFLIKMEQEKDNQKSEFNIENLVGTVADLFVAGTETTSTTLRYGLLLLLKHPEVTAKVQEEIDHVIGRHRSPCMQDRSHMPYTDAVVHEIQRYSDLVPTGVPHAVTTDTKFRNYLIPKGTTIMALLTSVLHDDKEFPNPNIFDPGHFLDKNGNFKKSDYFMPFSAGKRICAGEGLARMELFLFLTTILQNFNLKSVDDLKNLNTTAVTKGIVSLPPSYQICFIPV
Experimental: as §1, §2, §3, §4

CYP3A4 = biological target: T5, CYP3A4 (Homo sapiens, UniProt P08684); experiment: Inhibition of testosterone 6β-hydroxylation in human liver microsomes; assay type: in vitro ADME
T5 construct: The HLMs were prepared from eleven individual human donor livers; tissue Research Institute for Liver Disease Co. (Shanghai, China); host or cells: human liver microsomes, pool of eleven donors
T5 sequence (P08684 whole entry): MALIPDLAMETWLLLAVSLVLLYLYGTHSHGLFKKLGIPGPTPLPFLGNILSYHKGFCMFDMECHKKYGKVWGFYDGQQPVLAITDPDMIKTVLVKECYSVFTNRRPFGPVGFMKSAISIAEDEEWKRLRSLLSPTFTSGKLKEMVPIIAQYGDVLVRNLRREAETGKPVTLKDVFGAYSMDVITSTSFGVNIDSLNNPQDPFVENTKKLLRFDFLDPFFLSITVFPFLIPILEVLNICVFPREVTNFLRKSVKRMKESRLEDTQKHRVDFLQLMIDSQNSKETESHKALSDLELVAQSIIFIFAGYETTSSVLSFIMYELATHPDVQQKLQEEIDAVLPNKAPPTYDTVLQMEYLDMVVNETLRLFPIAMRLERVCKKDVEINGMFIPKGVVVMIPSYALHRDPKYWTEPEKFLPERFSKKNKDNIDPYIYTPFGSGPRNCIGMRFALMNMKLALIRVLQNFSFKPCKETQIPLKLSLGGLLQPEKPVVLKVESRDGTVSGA
Experimental: as §1, §2, §3, §4

in vitro = in vitro ADME; details: human
Experimental: as §3
To estimate kinetic parameters of xanthotoxol and make sure that the formations of metabolites were in the linear range of both reaction time and the concentration of microsomes, xanthotoxol (0.25–200 μM) was incubated with pooled HLMs for 30 min. Reaction velocities and substrate concentrations were used to calculate the apparent K m and V max values according to nonlinear regression from the Michaelis-Menten equation (see (1)). CLint was calculated as V max/K m. In addition, the result was graphically represented on Eadie-Hofstee plots (velocities versus ratios of velocities to substrate concentrations) to determine whether the metabolism was monophasic or biphasic. Consider(1) V=Vmax·S/Km+S, where V max was the maximum reaction velocity, K m was the Michaelis constant that represented the substrate concentration at which the velocity was half of V max, V was the reaction velocity, and [S] was the substrate concentration.

[4] = HLMs, Lineweaver-Burk and Dixon plots

SMILES	inhibition against metabolite production (cytochrome P450s (CYPs))	IC50 (CYP1A2)	Ki (CYP1A2)	type of inhibition of CYP1A2 (CYP1A2; [4])	amount of metabolite M generated compared to CYP1A2 level (CYP2E1 [1])	hepatic clearance (CLH) [2]	percentage of CLH versus hepatic blood flow (QH)% [2]	clearance classification ([2]; microsomes)	inhibited the activity of CYP2E1 (CYP2E1 [3])	inhibited the activity of CYP2A6 (CYP2A6)	inhibited the activity of CYP2C8 (CYP2C8)	IC50 (CYP3A4)	Ki (CYP3A4)	type of inhibition of CYP3A4 (CYP3A4; [4])	Vmax of xanthotoxol metabolism (in vitro; 30 min, pH 7.4)	Intrinsic clearance (CLint) (in vitro; microsomes, pH 7.4)	microsomal CLint (in vitro; microsomes, pH 7.4, Intrinsic clearance (CLint))	Km at 30 min (in vitro; pH 7.4)
Nn1nnc2ccccc21 [Aminobenzotriazole (ABT), 1-aminobenzotriazole]	potent inhibition	–	–	–	–	–	–	–	–	–	–	–	–	–	–	–	–	–
O=c1ccc2cc3ccoc3c(O)c2o1 [xanthotoxol, Xanthotoxol]	–	27.8 µM	21.1 µM	noncompetitive	7.3%	15.91 mL·min^−1·kg^−1 body weight	76.8%	high-clearance drug	25.9%	82.1%	52.1%	7.43 µM	2.22 µM	noncompetitive	0.55 nmol/min/mg	65 µL/min/mg	60 µL/min/mg	8.46 µM
